# Source: patent US12448399B2, “Cereblon-based KRAS degrading PROTACs and uses related thereto” (Arvinas Operations, Inc., priority 2023, dated 2025)
# Target: T1, KRas-G12D (Homo sapiens, UniProt P01116, G12D)
# T1 construct: insert the HiBiT tag onto the N-terminus of one or more of the endogenous KRas alleles; host or cells: AsPC-1 HiBiT-KRasG12D knock-in clone (one tagged allele, two untagged KRasG12D alleles)
# Experiment: HiBiT Degradation Assay (G12D), AsPC-1 HiBiT-KRasG12D cells, 24 hr
# Type: cell-based
# Conditions: for Dmax: ASPC1, AsPC-1 cells, maximum degradation observed; for DC50: AsPC-1 cells
# Method in brief: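 Degradation was read after 24 hr compound exposure (0.5% DMSO, 37° C) by Nano-Glo HiBiT lytic luminescence in AsPC-1 cells carrying a HiBiT tag on one of three KRasG12D alleles. Signal relative to DMSO gave DC50 and Dmax by 4-parameter fit; alamar blue fluorescence monitored cytotoxicity.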
# T1 sequence (P01116 1-188 isoform P01116-2 G12D): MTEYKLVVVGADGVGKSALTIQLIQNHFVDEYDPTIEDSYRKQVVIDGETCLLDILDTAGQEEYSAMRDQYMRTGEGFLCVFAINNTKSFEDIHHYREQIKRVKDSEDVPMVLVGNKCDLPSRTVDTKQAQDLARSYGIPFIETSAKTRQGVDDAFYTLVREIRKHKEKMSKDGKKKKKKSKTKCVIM
SMILES,Dmax,DC50
"C#Cc1c(F)ccc2cc(O)cc(-c3ncc4c(N5CC6CCC(C5)N6)nc(OC[C@@]56CCCN5[C@H](CN5CCN(CC7CCN(c8ccc9c(c8)CN(C8CCC(=O)NC8=O)C9=O)CC7)CC5)CC6)nc4c3F)c12 (stereo partly drawn) [Compound 100, 3-(5-{4-[(4-{[(3S,7aS)-7a-{[(4-{3,8-diazabicyclo[3.2.1]octan-3-yl}-7-(8-ethynyl-7-fluoro-3-hydroxynaphthalen-1-yl)-8-fluoropyrido[4,3-d]pyrimidin-2-yl)oxy]methyl}-hexahydro-1H-pyrrolizin-3-yl]methyl}piperazin-1-yl)methyl]piperidin-1-yl}-1-oxo-2,3-dihydro-1H-isoindol-2-yl)piperidine-2,6-dione]",> 70%,< 5.1 µM
"C#Cc1c(F)ccc2cc(O)cc(-c3ncc4c(N5CC6CCC(C5)N6)nc(OCCN5CCC(CN6CCC(CC7CCN(c8cc(C)c9c(c8F)CN(C8CCC(=O)NC8=O)C9=O)CC7)CC6)CC5)nc4c3F)c12 (stereo not shown) [Compound 170, 3-{5-[4-({1-[(1-{2-[(4-{3,8-diazabicyclo[3.2.1]octan-3-yl}-7-(8-ethynyl-7-fluoro-3-hydroxynaphthalen-1-yl)-8-fluoropyrido[4,3-d]pyrimidin-2-yl)oxy]ethyl}piperidin-4-yl)methyl]piperidin-4-yl}methyl)piperidin-1-yl]-4-fluoro-7-methyl-1-oxo-2,3-dihydro-1H-isoindol-2-yl}piperidine-2,6-dione]",> 70%,< 5.1 µM
CCc1cccc2cc(O)cc(-c3ncc4c(N5CC6CCC(C5)N6)nc(OCCN5CCC(c6ccc7c(c6)C(=O)N(C6CCC(=O)NC6=O)C7=O)CC5)nc4c3F)c12 (stereo not shown) [Compound 34],,0.25 to 1 µM
C#Cc1c(F)ccc2cc(O)cc(-c3ccc4c(N5CC6CCC(C5)N6)nc(OCCN5CCC(CC6CCN(CC7CCN(c8ccc9c(c8F)n(C)c(=O)n9C8CCC(=O)NC8=O)CC7)CC6)CC5)nc4c3F)c12 (stereo not shown) [Compound 232],> 70%,< 5.1 µM
"C#Cc1c(F)ccc2cc(O)cc(-c3ncc4c(N5CC6CCC(C5)N6)nc(OCCN5CCC(CN6CCC(CC7CCN(c8ccc9c(c8)n(C(C)C)c(=O)n9C8CCC(=O)NC8=O)CC7)CC6)CC5)nc4c3F)c12 (stereo not shown) [Compound 80, 3-{5-[4-({1-[(1-{2-[(4-{3,8-diazabicyclo[3.2.1]octan-3-yl}-7-(8-ethynyl-7-fluoro-3-hydroxynaphthalen-1-yl)-8-fluoropyrido[4,3-d]pyrimidin-2-yl)oxy]ethyl}piperidin-4-yl)methyl]piperidin-4-yl}methyl)piperidin-1-yl]-2-oxo-3-(propan-2-yl)-2,3-dihydro-1H-1,3-benzodiazol-1-yl}piperidine-2,6-dione]",> 70%,< 5.1 µM
C#Cc1c(F)ccc2cc(O)cc(-c3ncc4c(N5CC6CCC(C5)N6)nc(OC[C@@H]5C[C@@H](OC6CCN(c7ccc8c(c7)CN(C7CCC(=O)NC7=O)C8=O)CC6)CN5C)nc4c3F)c12 (stereo partly shown) [Compound 104],> 70%,< 5.1 µM
"C#Cc1c(F)ccc2cc(O)cc(-c3ncc4c(N5CC6CCC(C5)N6)nc(OCCN5CCC(CN6CCN(CC7CCN(c8ccc9c(c8F)CN(C8CCC(=O)NC8=O)C9=O)CC7)C(C)(C)C6)CC5)nc4c3F)c12 (stereo not shown) [Compound 169, 3-{5-[4-({4-[(1-{2-[(4-{3,8-diazabicyclo[3.2.1]octan-3-yl}-7-(8-ethynyl-7-fluoro-3-hydroxynaphthalen-1-yl)-8-fluoropyrido[4,3-d]pyrimidin-2-yl)oxy]ethyl}piperidin-4-yl)methyl]-2,2-dimethylpiperazin-1-yl}methyl)piperidin-1-yl]-4-fluoro-1-oxo-2,3-dihydro-1H-isoindol-2-yl}piperidine-2,6-dione]",> 70%,< 5.1 µM
"C#Cc1c(F)ccc2cc(O)cc(-c3ncc4c(N5CC6CCC(C5)N6)nc(OCCN5CCC(CC6CCN(CC7CCN(c8ccc9c(c8F)CN([C@H]8CCC(=O)NC8=O)C9=O)CC7)CC6)CC5)nc4c3F)c12 [Compound 214, (3S)-3-{5-[4-({4-[(1-{2-[(4-{3,8-diazabicyclo[3.2.1]octan-3-yl}-7-(8-ethynyl-7-fluoro-3-hydroxynaphthalen-1-yl)-8-fluoropyrido[4,3-d]pyrimidin-2-yl)oxy]ethyl}piperidin-4-yl)methyl]piperidin-1-yl}methyl)piperidin-1-yl]-4-fluoro-1-oxo-2,3-dihydro-1H-isoindol-2-yl}piperidine-2,6-dione]",> 70%,< 5.1 µM
"CCc1cccc2cc(O)cc(-c3ncc4c(N5CC6CCC(C5)N6)nc(OCCN5CCC(CC6CCN(CC7CCN(c8cccc9c8CN(C8CCC(=O)NC8=O)C9=O)CC7)CC6)CC5)nc4c3F)c12 (stereo not shown) [Compound 55, 3-[4-[4-[[4-[[1-[2-[4-(3,8-diazabicyclo[3.2.1]octan-3-yl)-7-(8-ethyl-3-hydroxy-1-naphthyl)-8-fluoro-pyrido[4,3-d]pyrimidin-2-yl]oxyethyl]-4-piperidyl]methyl]-1-piperidyl]methyl]-1-piperidyl]-1-oxo-isoindolin-2-yl]piperidine-2,6-dione]",,< 5.1 µM
"C#Cc1c(F)ccc2cc(O)cc(-c3ncc4c(N5CC6CCC(C5)N6)nc(OCC5(CN6CCC(CC7CCN(c8ccc9c(c8)n(C(C)C)c(=O)n9C8CCC(=O)NC8=O)CC7)CC6)CC5)nc4c3F)c12 (stereo not shown) [Compound 191, 3-{5-[4-({1-[(1-{[(4-{3,8-diazabicyclo[3.2.1]octan-3-yl}-7-(8-ethynyl-7-fluoro-3-hydroxynaphthalen-1-yl)-8-fluoropyrido[4,3-d]pyrimidin-2-yl)oxy]methyl}cyclopropyl)methyl]piperidin-4-yl}methyl)piperidin-1-yl]-2-oxo-3-(propan-2-yl)-2,3-dihydro-1H-1,3-benzodiazol-1-yl}piperidine-2,6-dione]",> 70%,< 5.1 µM
"C#Cc1c(F)ccc2cc(O)cc(-c3ncc4c(N5CC6CCC(C5)N6)nc(OCCN5CCC(CN6CCC(CC7CCN(c8ccc9c(c8F)n(C(C)C)c(=O)n9C8CCC(=O)NC8=O)CC7)CC6)CC5)nc4c3F)c12 (stereo not shown) [Compound 167, 3-{5-[4-({1-[(1-{2-[(4-{3,8-diazabicyclo[3.2.1]octan-3-yl}-7-(8-ethynyl-7-fluoro-3-hydroxynaphthalen-1-yl)-8-fluoropyrido[4,3-d]pyrimidin-2-yl)oxy]ethyl}piperidin-4-yl)methyl]piperidin-4-yl}methyl)piperidin-1-yl]-4-fluoro-2-oxo-3-(propan-2-yl)-2,3-dihydro-1H-1,3-benzodiazol-1-yl}piperidine-2,6-dione]",,< 5.1 µM
"CCc1cccc2cc(O)cc(-c3ncc4c(N5CC6CCC(C5)N6C)nc(OC[C@@]56CCCN5[C@H](COC(=O)N5CCN(c7ccc8c(c7)CN(C7CCC(=O)NC7=O)C8=O)CC5)CC6)nc4c3F)c12 (stereo partly drawn) [Compound 47, [(3S,8S)-8-[[7-(8-ethyl-3-hydroxy-1-naphthyl)-8-fluoro-4-(8-methyl-3,8-diazabicyclo[3.2.1]octan-3-yl)pyrido[4,3-d]pyrimidin-2-yl]oxymethyl]-1,2,3,5,6,7-hexahydropyrrolizin-3-yl]methyl4-[2-(2,6-dioxo-3-piperidyl)-1-oxo-isoindolin-5-yl]piperazine-1-carboxylate]",≤ 25%,0.25 to 1 µM
C#Cc1c(F)ccc2cc(O)cc(-c3ncc4c(C5CC6CCC(C5)N6)nc(OCCN5CCC(CC6CCN(CC7CCN(c8ccc9c(c8)C(=O)N(C8CCC(=O)NC8=O)C9=O)CC7)CC6)CC5)nc4c3F)c12 (stereo not shown) [Compound 74],> 70%,< 5.1 µM
CCc1cccc2cc(O)cc(-c3ncc4c(N5CC6CCC(C5)N6)nc(OCCN5CCN(CC6CCN(C(=O)c7ccc(OC)c(N8CCC(=O)NC8=O)c7)CC6)CC5)nc4c3F)c12 [Compound 6],,> 1 µM
CCc1cccc2cc(O)cc(-c3ncc4c(N5CC6CCC(C5)N6)nc(OCCN5CCC(CCC6CCN(c7ccc8c(c7)C(=O)N(C7CCC(=O)NC7=O)C8=O)CC6)CC5)nc4c3F)c12 (stereo not shown) [Compound 12],,> 1 µM
"C#Cc1c(F)ccc2cc(O)cc(-c3ncc4c(N5CC6CCC(C5)N6)nc(OCCN5CCC(CN6CCC(CC7CCN(c8ccc9c(c8F)CN(C8CCC(=O)NC8=O)C9=O)CC7)CC6)CC5)nc4c3F)c12 (stereo not shown) [Compound 88, 3-{5-[4-({1-[(1-{2-[(4-{3,8-diazabicyclo[3.2.1]octan-3-yl}-7-(8-ethynyl-7-fluoro-3-hydroxynaphthalen-1-yl)-8-fluoropyrido[4,3-d]pyrimidin-2-yl)oxy]ethyl}piperidin-4-yl)methyl]piperidin-4-yl}methyl)piperidin-1-yl]-4-fluoro-1-oxo-2,3-dihydro-1H-isoindol-2-yl}piperidine-2,6-dione]",> 70%,< 5.1 µM
"C#Cc1c(F)ccc2cc(O)cc(-c3ncc4c(N5CC6CCC(C5)N6)nc(OC[C@H](C)N5CCC(CC6CCN(CC7CCN(c8ccc9c(c8F)CN(C8CCC(=O)NC8=O)C9=O)CC7)CC6)CC5)nc4c3F)c12 (stereo partly drawn) [Compound 194, 3-[5-[4-[[4-[[1-[(1S)-2-[4-(3,8-diazabicyclo[3.2.1]octan-3-yl)-7-(8-ethynyl-7-fluoro-3-hydroxy-1-naphthyl)-8-fluoro-pyrido[4,3-d]pyrimidin-2-yl]oxy-1-methyl-ethyl]-4-piperidyl]methyl]-1-piperidyl]methyl]-1-piperidyl]-4-fluoro-1-oxo-isoindolin-2-yl]piperidine-2,6-dione]",> 70%,< 5.1 µM
"C#Cc1c(F)ccc2cc(O)cc(-c3ncc4c(N5CC6CCC(C5)N6)nc(OCC5(CN6CCC(CC7CCN(c8ccc9c(c8)n(C)c(=O)n9C8CCC(=O)NC8=O)CC7)CC6)CC5)nc4c3F)c12 (stereo not shown) [Compound 210, 3-{5-[4-({1-[(1-{[(4-{3,8-diazabicyclo[3.2.1]octan-3-yl}-7-(8-ethynyl-7-fluoro-3-hydroxynaphthalen-1-yl)-8-fluoropyrido[4,3-d]pyrimidin-2-yl)oxy]methyl}cyclopropyl)methyl]piperidin-4-yl}methyl)piperidin-1-yl]-3-methyl-2-oxo-2,3-dihydro-1H-1,3-benzodiazol-1-yl}piperidine-2,6-dione]",> 70%,< 5.1 µM
